Data taken from the RepoRT retention time repository (doi:10.1016/j.foodchem.2021.129757).

Columns and labels:
Details in all cases: stereoisomer not certain
[1] = Other, Phenomenex Kinetex PFP, 100 × 4.6 mm, 5 µm, 45 °C, 0.6 mL/min, estimated dead time 1.8 min; A: water + 0.1% trifluoroacetic acid, pH 2; B: methanol; gradient (min/%B) 0/40 20/72 21/40
[2] = RP, Merck Supelco SUPELCOSIL LC-C18, 250 × 4.6 mm, 5 µm, 40 °C, 1 mL/min, estimated dead time 2.6 min; A: water + 0.1% trifluoroacetic acid, pH 2; B: acetonitrile + 0.1% trifluoroacetic acid, pH 2; gradient (min/%B) 0/5 45/35 47/75 49/35 50/5
[3] = RP, Phenomenex Kinetex EVO C18, 100 × 2.1 mm, 2.6 µm, 40 °C, 0.4 mL/min, estimated dead time 0.55 min; A: water + 0.2% formic acid; B: acetonitrile + 0.2% formic acid; gradient (min/%B) 0/5 0.5/5 7/95 8/95 8.5/5 12/5
[4] = RP, Waters ACQUITY UPLC HSS T3, 100 × 2.1 mm, 50 °C; A: water + 0.1% formic acid, pH 3; B: 30% methanol + 70% acetonitrile + 0.1% formic acid, pH 3; gradient (min/%B) 0/5 1/8 2/15 3/40 4/70 4.5/100 5/100 6.4/100 6.6/5 6.8/5 7/5
[5] = RP, Merck LiChrospher RP-18, 250 × 4 mm, 5 µm, 35 °C, 0.3 mL/min, estimated dead time 6.7 min; A: water + 0.5% formic acid; B: acetonitrile + 0.5% formic acid; gradient (min/%B) 0/5 10/5 30/15 45/20 65/20 95/54 110/63 115/5 135/5
[6] = RP, Agilent ZORBAX Eclipse XDB-C18, 100 × 2.1 mm, 1.8 µm, 50 °C, 0.4 mL/min, estimated dead time 0.55 min; A: water + 0.1% formic acid, pH 3; B: methanol + 0.1% formic acid, pH 3; gradient (min/%B) 0/2 10/100 14.5/100 14.51/2 16.5/2
[7] = RP, Waters ACQUITY UPLC BEH C18, 100 × 2.1 mm, 1.7 µm, 65 °C, 0.4 mL/min, estimated dead time 0.55 min; A: water + 0.1% formic acid, pH 3; B: 80% acetonitrile + 20% acetone + 0.1% formic acid, pH 3; gradient (min/%B) 0/0 5/100 5.5/0 6/0
[8] = RP, Agilent ZORBAX RRHD Eclipse Plus C18, 50 × 2.1 mm, 1.8 µm, 30 °C, 0.4 mL/min, estimated dead time 0.28 min; A: water + 0.1% formic acid, pH 3; B: acetonitrile + 0.1% formic acid, pH 3; gradient (min/%B) 0/1 5/10 8/25 9.1/99 10/99 12/1
[9] = RP, Agilent ZORBAX RRHD Eclipse Plus C18, 50 × 2.1 mm, 1.8 µm, 30 °C, 0.4 mL/min, estimated dead time 0.28 min; A: water + 0.1% formic acid, pH 3; B: acetonitrile + 0.1% formic acid, pH 3; gradient (min/%B) 0/1 5/10 8/25 9.1/99 10/99 12/99
[10] = RP, Phenomenex Synergi Hydro-RP, 250 × 2 mm, 4 µm, 25 °C, 0.2 mL/min, estimated dead time 2.5 min; A: water + 0.1% formic acid, pH 3; B: acetonitrile + 0.1% formic acid, pH 3; gradient (min/%B) 0/0.5 7/0.5 12/12.5 25/16.3 47/35 48/65 50/65 50.1/0.5
[11] = RP, Waters Atlantis T3, 100 × 2.1 mm, 3 µm, 40 °C, 0.3 mL/min, estimated dead time 0.73 min; A: water + 0.1% trifluoroacetic acid, pH 2; B: acetonitrile + 0.1% trifluoroacetic acid, pH 2; gradient (min/%B) 0/10 1/10 6/40 7/50 8/50 14/70 16/80 20/10 25/10
[12] = RP, Waters ACQUITY UPLC BEH Shield RP18, 150 × 2.1 mm, 1.7 µm, 40 °C, 0.4 mL/min, estimated dead time 0.83 min; A: water + 0.1% formic acid, pH 3; B: acetonitrile + 0.1% formic acid, pH 3; gradient (min/%B) 0/0 30/50 31/100 37/100 37.1/0
[13] = RP, Agilent InfinityLab Poroshell 120 EC-C18, 100 × 3 mm, 2.7 µm, 25 °C, 0.4 mL/min, estimated dead time 1.1 min; A: water + 0.1% formic acid, pH 3; B: acetonitrile + 0.1% formic acid, pH 3; gradient (min/%B) 0/5 10/25 20/40 24/90 25/90 26/5 30/5
[14] = RP, 50 × 0.5 mm, 2.7 µm, 35 °C, 0.01 mL/min, estimated dead time 0.62 min; A: water + 0.1% formic acid, pH 3; B: acetonitrile + 0.1% formic acid, pH 3; gradient (min/%B) 0/5 12/95 14/95 16/5
[15] = RP, Phenomenex Luna Omega Polar C18, 100 × 2.1 mm, 1.6 µm, 40 °C, 0.5 mL/min, estimated dead time 0.44 min; A: water + 0.5% formic acid; B: acetonitrile + 0.5% formic acid; gradient (min/%B) 0/5 3/50 3.1/100 5/100 5.1/5 7/5
[16] = RP, Phenomenex Luna C18, 150 × 4.6 mm, 3 µm, 25 °C, 0.5 mL/min, estimated dead time 3.2 min; A: water + 0.1% formic acid, pH 3; B: acetonitrile + 0.1% formic acid, pH 3; gradient (min/%B) 0/0 30/30 35/40 50/80 52/80 60/0 65/0
[17] = RP, Phenomenex Luna Omega Polar C18, 100 × 2.1 mm, 1.6 µm, 40 °C, 0.5 mL/min, estimated dead time 0.44 min; A: water + 0.1% formic acid + 10 mM ammonium formate; B: acetonitrile; gradient (min/%B) 0/5 8/20 10/100 12/100 12.1/5 14/5
[18] = RP, Waters ACQUITY UPLC HSS T3, 100 × 2.1 mm, 1.8 µm, 30 °C, 0.4 mL/min, estimated dead time 0.55 min; A: water + 0.1% formic acid, pH 3; B: acetonitrile + 0.1% formic acid, pH 3; gradient (min/%B) 0/0 2/0 15/100 22/100 22.1/0 26/0
[19] = RP, Waters ACQUITY UPLC BEH Shield RP18, 100 × 2.1 mm, 1.7 µm, 30 °C, 0.6 mL/min, estimated dead time 0.37 min; A: water + 0.1% formic acid, pH 3; B: acetonitrile + 0.1% formic acid, pH 3; gradient (min/%B) 0/0 2/0 7/10 22/95 22.1/0 26/0
[20] = RP, 150 × 2.1 mm, 2.6 µm, 40 °C, 0.35 mL/min, estimated dead time 0.94 min; A: water + 0.1% formic acid, pH 3; B: acetonitrile + 0.1% formic acid, pH 3; gradient (min/%B) 0/0 1/0 12.5/100 14/100 14.2/0 15/0
[21] = RP, 150 × 2.1 mm, 2.6 µm, 40 °C, 0.35 mL/min, estimated dead time 0.94 min; A: water + 0.1% formic acid, pH 3; B: acetonitrile + 0.1% formic acid, pH 3; gradient (min/%B) 0/0 1/5 7/45 8.5/80 10.5/80 11/5 12/5

SMILES	LC retention time [1]	LC retention time [2]	LC retention time [5]	LC retention time [7]	LC retention time [8]	LC retention time [9]	LC retention time [10]	LC retention time [11]	LC retention time [12]	LC retention time [13]	LC retention time [18]	other results
O=C(O)c1ccc(O)c(O)c1O [2,3,4-Trihydroxybenzoic acid]	4.34 min	8.9 min										
O=C(O)c1ccc(O)cc1 [4-Hydroxybenzoic acid]	5.08 min	11.3 min	39.7 min	1.65 min	3.9 min	2.55 min	19.9 min	3.58 min				LC retention time [3]: 2.18 min; LC retention time [4]: 2.8 min; LC retention time [6]: 2.91 min
O=c1cc(-c2ccc(O)cc2)oc2cc(O)cc(O)c12 [Apigenin]		43.2 min	97 min					10.1 min	23.6 min	16.3 min		
O=C(C=Cc1ccc(O)c(O)c1)OC1CC(O)(C(=O)O)CC(O)C1O (configuration not stated) [Chlorogenic acid]	4.03 min	13.8 min	41.1 min	1.64 min	5.31 min	4.49 min	20 min	3.17 min	7.05 min	5.48 min	8.02 min	LC retention time [14]: 3.38 min; LC retention time [15]: 1.81 min; LC retention time [16]: 12.3 min; LC retention time [17]: 3.49 min; LC retention time [6]: 3.27 min; LC retention time [19]: 11 min
O=c1cc2oc(-c3cc(O)c(O)c(O)c3)c(O)cc-2c(O)c1 [Delphinidin]	8.44 min	25.1 min										
O=c1oc2c(O)c(O)cc3c(=O)oc4c(O)c(O)cc1c4c23 [Ellagic acid]		24.8 min	60.3 min	1.91 min				7.94 min		8.97 min		LC retention time [16]: 14.2 min; LC retention time [19]: 13.1 min
O=C(O)c1cc(O)c(O)c(O)c1 [Gallic acid]	3 min	5.2 min	16.5 min	1.5 min	1.64 min	0.713 min	13.9 min	1.56 min	2.41 min	2.36 min	4.98 min	LC retention time [14]: 1.44 min; LC retention time [3]: 0.96 min; LC retention time [15]: 1.15 min; LC retention time [16]: 5.35 min; LC retention time [17]: 1.22 min; LC retention time [6]: 1.47 min; LC retention time [19]: 2.69 min
COc1ccc(C2CC(=O)c3c(O)cc(OC4OC(COC5OC(C)C(O)C(O)C5O)C(O)C(O)C4O)cc3O2)cc1O (configuration not stated) [Hesperidin]	9.9 min	30.1 min	75.1 min					10 min	13 min	10.8 min	9.62 min	LC retention time [20]: 6 min; LC retention time [21]: 6.18 min
COc1cc(-c2[o+]c3cc(O)cc(O)c3cc2O)cc(OC)c1O [Malvidin]	14.3 min	35.9 min										

Second part, led by results:

LC retention time [1]	LC retention time [2]	LC retention time [5]	LC retention time [7]	LC retention time [8]	LC retention time [9]	LC retention time [10]	LC retention time [11]	LC retention time [12]	LC retention time [13]	LC retention time [18]	SMILES	other results
12.9 min	33.5 min	42 min									Oc1ccc(-c2[o+]c3cc(O)cc(O)c3cc2O)cc1 [Pelargonidin]	
16.6 min	37.2 min	91 min	2.63 min	9.04 min	9.19 min	46.8 min	9.34 min	20.4 min	14.1 min	11 min	O=c1c(O)c(-c2ccc(O)c(O)c2)oc2cc(O)cc(O)c12 [Quercetin]	LC retention time [4]: 3.74 min
8.63 min	25.2 min	59.2 min				34.1 min	7.12 min	12.6 min	8.79 min		CC1OC(OCC2OC(Oc3c(-c4ccc(O)c(O)c4)oc4cc(O)cc(O)c4c3=O)C(O)C(O)C2O)C(O)C(O)C1O (configuration not stated) [Rutin]	
7.73 min	23 min			7.85 min	8.66 min	33.9 min		12.4 min		9.67 min	O=C1c2c(O)cc(O)cc2OC(c2ccc(O)c(O)c2)C1O (configuration not stated) [Taxifolin]	LC retention time [20]: 5.84 min; LC retention time [21]: 5.86 min
	25.9 min	74.4 min		8.32 min	8.67 min	37.5 min		12.7 min			O=C(O)C=Cc1ccccc1O [o-Coumaric acid]	LC retention time [20]: 6.29 min; LC retention time [21]: 6.36 min
